Measured values from paper PMC3694096, “Development of Novel In Vivo Chemical Probes to Address CNS Protein Kinase Involvement in Synaptic Dysfunction” (PLoS ONE, 2013).

Columns and labels:
[1] = Dose escalation adverse event screen (SHIRPA based); type: in vivo; conditions: highest dose at which no adverse events are observed in dose escalation studies, mice
Source text: Novel compounds were screened in vivo using a standard dose escalation screen in mice coupled with clinical observation and testing based on the SHIRPA mouse phenotype assay paradigm. To obtain insight into the potential for off-target activity with the largest known family of small molecule drug targets, G-protein coupled receptors (GPCRs), a cell-based functional screen of the final title compounds was done. The Millipore® GPCR Profiler screen employs the ChemiScreen GPCR stable cell line technology used for real-time calcium flux FLIPR assays on a panel of 158 GPCRs to detect both antagonists and agonists. The NCBI Entrez identifier for each GPCR is provided at the vendor site (www.millipore.com). Follow-up validation of any initial hits as being true positives or negatives was done as described above for protein kinases by testing the concentration dependence of any cellular effects. No validated hits were detected.

[2] = target: casein kinase 1δ (CK1δ), p38βMAPK and other kinases; conditions: cited from earlier work
p38MAPKs = system: p38MAPKs; design: method as in PMID 17079143; conditions: cited from earlier work

Structure (SMILES) | Dose Escalating Adverse Event Screen / Adverse Pharm Dose [1] [mg/kg] | other results
CCN(CC)c1cc(-c2ccncc2)c(-c2ccccc2)nn1 [MW177] | > 200 | –
c1ccc(-c2nnc(N3CCN(c4ncccn4)CC3)cc2-c2ccncc2)cc1 [MW069a] | 60 | –
C[S+]([O-])c1ccc(-c2nc(-c3ccncc3)c(-c3ccc(F)cc3)[nH]2)cc1 (centres unmarked) [SB203580] | – | kinase cross-over [2]: inhibit casein kinase 1δ (CK1δ), p38βMAPK and other kinases
CN1CCN(c2cc(-c3ccncc3)c(-c3ccccc3)nn2)CC1 [MW066] | > 200 | –
CN(C)c1cc(-c2ccncc2)c(-c2ccccc2)nn1 [MW105, N, N-dimethyl-6-phenyl-5-(pyridin-4-yl)pyridazin-3-amine] | > 200 | –
c1ccc(-c2cc(-c3ccncc3)c(N3CCN(c4ncccn4)CC3)nn2)cc1 [MW01-6-189WH] | – | interaction with p38MAPKs (p38MAPKs): does not interact with p38MAPKs
CCCN(C)c1cc(-c2ccncc2)c(-c2ccccc2)nn1 [MW207] | > 200 | –
COc1nccc(-c2c(-c3ccc(F)cc3)ncn2C2CCC(O)CC2)n1 (centres unmarked) [SB239063] | – | kinase cross-over [2]: inhibit casein kinase 1δ (CK1δ), p38βMAPK and other kinases
